In US20260242335A1, “HETEROCYCLOALKYL BETA-HYDROXY ALKYL AMINES FOR USE IN THE TREATMENT OF HYPERGLYCAEMIA AND DISORDERS CHARACTERISED BY HYPERGLYCAEMIA” (ATROGI AB, priority 2023, published 2026):
Where a name gives a salt, the structure may show the parent alone.

Experiments:
L6-myotubes [1] = assay: Glucose uptake (3H-2-deoxyglucose) in differentiated L6-myotubes, compared to isoproterenol; type: cell-based; conditions: compound at 10 μM vs isoproterenol at 10 μM, read-out: Biological example 1: glucose uptake activity compared to that of isoproterenol
Procedure: (§1) L6-myoblasts were grown in Dulbecco's Modified Eagle's Medium (DMEM) containing 1 g/L glucose supplemented with 10% fetal bovine serum, 2 mM L-Glutamine, 50 U/mL penicillin, […] streptomycin and 10 mM HEPES. Cells were plated at 1×10^5 cells per mL in 24-well plates. After reaching 90% confluence the cells were grown in medium containing 2% FBS for 7 days where upon cells differentiated into myotubes.
Differentiated L6-myotubes were serum-starved overnight in medium containing 0.5% fatty-acid free BSA and stimulated with an agonist, with a final concentration of 1×10^−5 M. After 1 h 40 min the cells were washed with warm glucose free medium or PBS twice and another portion of agonist was added to the glucose free medium. After 20 min the cells were exposed to 50 nM ^3H-2-deoxyglucose for another 10 min before washed in ice cold glucose free medium or PBS three times and lysed in 400 μL/well 0.2 M NaOH for 1 h at 60° C. The cell lysate was mixed with 4 mL scintillation buffer (Emulsifier Safe, Perkin Elmer) and the radioactivity was detected in a p-counter (Tri-Carb 4810TR, Perkin Elmer). The activity for each compound is compared to that of isoproterenol.

L6-myotubes [2] = assay: Measurement of intracellular cAMP levels (alpha screen cAMP kit) in differentiated cells, compared to isoproterenol; type: cell-based; conditions: 0.25 h, compound at 10 μM vs isoproterenol at 10 μM, 15 min stimulation, read-out: Biological example 2: intracellular cAMP level activity compared to that of isoproterenol
Procedure: as §1
Differentiated cells were serum-starved overnight and stimulated with an agonist, final concentration 1×10^−5 M, for 15 min in stimulation buffer (HBSS supplemented with 1% BSA, 5 mM HEPES and 1 mM IBMX, pH 7.4). The medium was aspirated and 100 μL of 95% EtOH was added to each well of the 24-well plate and cells were kept at −20° C. overnight. The EtOH was allowed to evaporate and 500 μL of lysis buffer (1% BSA, 5 mM HEPES and 0.3% Tween-20, pH 7.4) was added to each well. The plate was kept at −80° C. for 30 min and then at −20° C. until the day of detection when the samples were thawed. Intracellular cAMP levels were detected using an alpha screen cAMP kit (6760635D from Perkin Elmer). The activity for each compound is compared to that of isoproterenol.

| SMILES | Emax at 10 µM (L6-myotubes [1]) | Emax at 10 µM (L6-myotubes [2]) |
| --- | --- | --- |
| CC(C)(C[C@@H]1CCCOC1)NC[C@H](O)c1cccc(F)c1 [Example 84, (R)-1-(3-Fluorophenyl)-2-((2-methyl-1-((S)-tetrahydro-2H-pyran-3-yl)propan-2-yl)amino)ethan-1-ol] | > 75% | 50 to 75% |
| CC(C)(CC1CCNCC1)NC[C@H](O)c1cncc(F)c1 [Example 46, (R)-1-(5-Fluoropyridin-3-yl)-2-((2-methyl-1-(piperidin-4-yl)propan-2-yl)amino)ethan-1-ol] | 50 to 75% | < 25% |
| CC(C)(C[C@@H]1CCN(C(=O)OC(C)(C)C)C1)NC[C@H](O)c1cncc(F)c1 [Example 68, tert-Butyl (S)-3-(2-(((R)-2-(5-fluoropyridin-3-yl)-2-hydroxyethyl)-amino)-2-methylpropyl)pyrrolidine-1-carboxylate] | > 75% | 25 to 50% |
| CC(C)(C[C@@H]1CCNC1)NC[C@H](O)c1cncc(F)c1 [Example 69, (R)-1-(5-Fluoropyridin-3-yl)-2-((2-methyl-1-((S)-pyrrolidin-3-yl)-propan-2-yl)amino)ethan-1-ol] | > 75% | < 25% |
| CC(C)(C[C@@H]1CCNC(=O)C1)NC[C@H](O)c1cncc(F)c1 [Example 55, (S)-4-(2-(((R)-2-(5-Fluoropyridin-3-yl)-2-hydroxyethyl)amino)-2-methylpropyl)piperidin-2-one] | > 75% | 50 to 75% |
| CC(C)(C[C@H]1CNC(=O)C1)NC[C@H](O)c1cccc(F)c1 [Example 76, (R)-4-(2-(((R)-2-(3-Fluorophenyl)-2-hydroxyethyl)amino)-2-methyl-propyl)pyrrolidin-2-one hydrochloride] | > 75% | < 25% |
| CC(C)(C[C@@H]1CNC(=O)C1)NC[C@H](O)c1cncc(F)c1 [Example 74, (S)-4-(2-(((R)-2-(5-Fluoropyridin-3-yl)-2-hydroxyethyl)amino)-2-methylpropyl)pyrrolidin-2-one dihydrochloride] | > 75% | 25 to 50% |
| CC(C)(C[C@@H]1CCNC(=O)C1)NC[C@H](O)c1cccc(F)c1 [Example 53, (S)-4-(2-(((R)-2-(3-Fluorophenyl)-2-hydroxyethyl)amino)-2-methyl-propyl)piperidin-2-one] | > 75% | > 75% |
| CC(C)(C[C@H]1CCNC1=O)NC[C@H](O)c1cccc(F)c1 [Example 73, (R)-3-(2-(((R)-2-(3-Fluorophenyl)-2-hydroxyethyl)amino)-2-methyl-propyl)pyrrolidin-2-one hydrochloride] | > 75% | < 25% |
| CN(C)C(=O)N1CCC(CC(C)(C)NC[C@H](O)c2cncc(F)c2)CC1 [Example 50, (R)-4-(2-((2-(5-Fluoropyridin-3-yl)-2-hydroxyethyl)amino)-2-methyl-propyl)-N,N-dimethylpiperidine-1-carboxamide dihydrochloride] | 50 to 75% | < 25% |
| CC(=O)N1CCC[C@@H](CC(C)(C)NC[C@H](O)c2cncc(F)c2)C1 [Example 13, 1-((S)-3-(2-(((R)-2-(5-Fluoropyridin-3-yl)-2-hydroxyethyl)amino)-2-methylpropyl)piperidin-1-yl)ethan-1-one dihydrochloride] | > 75% | < 25% |
| CC(C)(CC1CCNCC1)NC[C@H](O)c1cccc(F)c1 [Example 29, (R)-1-(3-Fluorophenyl)-2-((2-methyl-1-(piperidin-4-yl)propan-2-yl)-amino)ethan-1-ol] | > 75% | < 25% |
| CC(C)(C[C@@H]1CCCN(C(=O)OC(C)(C)C)C1)NC[C@H](O)c1cncc(F)c1 [Example 11, tert-Butyl (S)-3-(2-(((R)-2-(5-fluoropyridin-3-yl)-2-hydroxyethyl)-amino)-2-methylpropyl)piperidine-1-carboxylate] | > 75% | > 75% |
| CC(C)(C[C@@H]1CCCNC1)NC[C@H](O)c1cccc(C(F)(F)F)n1 [Example 21, (S)-2-((2-Methyl-1-((S)-piperidin-3-yl)propan-2-yl)amino)-1-(6-(trifluoromethyl)pyridin-2-yl)ethan-1-ol] | 50 to 75% | < 25% |
| CC(=O)N1CCC[C@@H](CC(C)(C)NC[C@H](O)c2cccc(F)c2)C1 [Example 3, 1-((S)-3-(2-(((R)-2-(3-Fluorophenyl)-2-hydroxyethyl)amino)-2-methylpropyl)piperidin-1-yl)ethan-1-one hydrochloride] | > 75% | 50 to 75% |
| CC(C)(CC1CCN(C(=O)C(C)(C)C)CC1)NC[C@H](O)c1cncc(F)c1 [Example 47, (R)-1-(4-(2-((2-(5-Fluoropyridin-3-yl)-2-hydroxyethyl)amino)-2-methylpropyl)piperidin-1-yl)-2,2-dimethylpropan-1-one dihydrochloride] | 50 to 75% | < 25% |
| CC(C)(C[C@H]1CCNC1=O)NC[C@H](O)c1cncc(F)c1 [Example 75, (R)-3-(2-(((R)-2-(5-Fluoropyridin-3-yl)-2-hydroxyethyl)amino)-2-methylpropyl)pyrrolidin-2-one dihydrochloride] | 25 to 50% | < 25% |
| CC(C)(C[C@@H]1CCC(=O)NC1)NC[C@H](O)c1cncc(F)c1 [Example 37, (S)-5-(2-(((R)-2-(5-Fluoropyridin-3-yl)-2-hydroxyethyl)amino)-2-methylpropyl)piperidin-2-one hydrochloride] | > 75% | < 25% |
| CC(C)(C[C@@H]1CCCN(C(=O)OC(C)(C)C)C1)NC[C@H](O)c1cccc(F)c1 [Example 1, tert-Butyl (S)-3-(2-(((R)-2-(3-fluorophenyl)-2-hydroxyethyl)amino)-2-methypropyl)piperidine-1-carboxylate acetate] | > 75% | > 75% |
| CC(C)(C[C@@H]1CCNC1=O)NC[C@H](O)c1cccc(F)c1 [Example 77, (S)-3-(2-(((R)-2-(3-Fluorophenyl)-2-hydroxyethyl)amino)-2-methyl-propyl)pyrrolidin-2-one hydrochloride] | 50 to 75% | < 25% |
| CC(C)(C[C@@H]1CNC(=O)C1)NC[C@H](O)c1cccc(F)c1 [Example 72, (S)-4-(2-(((R)-2-(3-Fluorophenyl)-2-hydroxyethyl)amino)-2-methyl-propyl)pyrrolidin-2-one hydrochloride] | > 75% | 50 to 75% |
| CC(C)(C[C@@H]1CCCN(C(=O)C(F)(F)F)C1)NC[C@H](O)c1cccc(F)c1 [Example 6, 2,2,2-Trifluoro-1-((S)-3-(2-(((R)-2-(3-fluorophenyl)-2-hydroxyethyl)-amino)-2-methylpropyl)piperidin-1-yl)ethan-1-one] | > 75% | < 25% |
| CC(=O)N1CCN(CC(C)(C)NC[C@H](O)c2cccc(F)c2)CC1 [Example 86, (R)-1-(4-(2-((2-(3-Fluorophenyl)-2-hydroxyethyl)amino)-2-methyl-propyl)piperazin-1-yl)ethan-1-one dihydrochloride] | > 75% | < 25% |
| CC(C)(C[C@H]1CCNC1)NC[C@H](O)c1cccc(F)c1 [Example 57, (R)-1-(3-Fluorophenyl)-2-((2-methyl-1-((R)-pyrrolidin-3-yl)propan-2-yl)amino)ethan-1-ol] | > 75% | < 25% |
| CC(C)(C[C@H]1CCCOC1)NC[C@H](O)c1cccc(F)c1 [Example 83, (R)-1-(3-Fluorophenyl)-2-((2-methyl-1-((R)-tetrahydro-2H-pyran-3-yl)propan-2-yl)amino)ethan-1-ol] | > 75% | < 25% |
| CC(C)(CC1CCN(C(=O)C(C)(C)C)CC1)NC[C@H](O)c1cccc(F)c1 [Example 41, (R)-1-(4-(2-((2-(3-Fluorophenyl)-2-hydroxyethyl)amino)-2-methyl-propyl)piperidin-1-yl)-2,2-dimethylpropan-1-one] | 25 to 50% | < 25% |
| COC(=O)N1CCC(CC(C)(C)NC[C@H](O)c2cccc(F)c2)CC1 [Example 43, Methyl (R)-4-(2-((2-(3-fluorophenyl)-2-hydroxyethyl)amino)-2-methyl-propyl)piperidine-1-carboxylate] | 50 to 75% | < 25% |
| CC(C)(C[C@@H]1CCCCO1)NC[C@H](O)c1cccc(F)c1 [Example 82, (R)-1-(3-Fluorophenyl)-2-((2-methyl-1-((S)-tetrahydro-2H-pyran-2-yl)propan-2-yl)amino)ethan-1-ol] | > 75% | < 25% |
